Key:
[1] = tested on: Basal cell cancer of skin; conditions: clinical PDT, topical; cited from earlier work
[2] = tested on: Barrett's oesophagus cancer; conditions: clinical PDT, systemic; cited from earlier work
[3] = in vivo; cited from earlier work
Her-2 receptor (human) = Her-2 receptor (human) (UniProt P04626); test: cell-based or functional assay
[4] = tested on: Chest wall recurrence in breast cancer; conditions: clinical PDT; cited from earlier work
Oral cancer = conditions: clinical PDT, over 5-53 months; cited from earlier work
Bladder cancer = conditions: clinical PDT; cited from earlier work
[5] = Fluorescence of conjugates in PBS (excitation 410 nm, emission 680 nm); type: physicochemical; conditions: measured in PBS buffer
Procedure: • 1. Serial dilutions (halving concentrations) of the conjugates were made in PBS and the fluorescence was measured at an excitation wavelength of 410 nm and an emission wavelength of 680 nm. • 2. These were compared to free PPa in PBS. Examples are shown for c6.5 scFv-PPa (FIG. 11) and MFE scFv-PPA (+/− benzoic acid) (FIG. 12)

KB cells [6] = test: Immunofluorescent microscopy, HER-2-negative cells; type: cell-based, human; conditions: 1 hour incubation; images and emission spectra
Procedure: FIG. 24—Immunofluorescent microscopy of C6.5-PPa photo-immunoconjugate Antigen negative KB cells (A-D) or antigen positive SKOV3 cells (E-J) were incubated with free PPa or C6.5-PPa photo-immunoconjugate for 1 hour. Images and emission spectra were recorded.
• 1. Round coverslips were washed in ethanol and rinsed in PBS. Coverslips were then placed in 12-well tissue culture plates. • 2. SKOV3 cells were trypsinised and washed with PBS. The cell pellet was resuspended in McCoy's media and cells were seeded onto the coverslips at 2×10^5 cells/ml. The cells were incubated overnight at 37° C. and 5% CO2. • 3. The coverslips with the adherent cells were rinsed carefully in PBS and either C6-PPa or PBS was added to the wells. The cells were incubated at 37° C. and 5% CO2 for 30 minutes after which time they were washed carefully with PBS. • 4. The cells were fixed onto the coverslips by incubating in 2 ml 4% paraformaldehyde for 60 minutes at room temperature. After this time, the coverslips were washed with PBS and inverted cell-side down onto glass slides. The edges of the coverslips were then sealed using nail varnish. • 5. Fluorescence imaging was then performed using an Ar+ laser (418 nm) as excitation source, using a Leica laser scanning confocal microscope, images are shown in FIGS. 20 and 24, and the emission spectrum is shown in FIGS. 21 and 24.

KB cells [7] = test: In vitro PDT cell killing (Cytotox-96), antigen-negative cells; type: cell-based, human; conditions: 30 min incubation, laser light 2 min, 1.4 J/cm^2, cell kill assay after 48 hours
Procedure: (§1) • 1. […] The flask was incubated at 37° C., 5% CO2 for 15 mins or until the cells had detached from the flask. The cells were then placed in a 50 ml Falcon tube and the trypsin deactivated by adding 15 ml DMEM or McCoy's medium. • 3. Cells (20 μl) were taken out of the tube and placed on a haemocytometer for counting. The remaining cells were harvested at 1800 g for 10 min at room temperature and the pellet gently resuspended in 1 ml of DMEM or McCoy's medium. The cells were thoroughly resuspended and a further 19 ml of DMEM or McCoy's medium added. The cells were diluted in DMEM or McCoy's medium accordingly to give 2×10^6 cells/ml. Cells (50 μl) were then added to each well of a 96 well plate and incubated overnight at 37° C. and 5% CO2. • 4. […] Cells were washed once with PBS and 50 μl of the conjugate added to wells in quadruplicate. Control wells were also included (wells with conjugate added but not exposed to light, and wells with neither conjugate added nor exposed to light). […] Cells were incubated in the conjugate or free PS (concentration varies) for 30 min at 37° C., 5% CO2 and then washed 3 times with PBS. […] The PBS was removed from each well and 100 μl of DMEM or McCoy's medium added. The plates were loosely wrapped in foil, but covered adequately so that no ambient light could enter.

[8] = tested on: vision loss associated with AMD; conditions: PDT compared to the placebo control; cited from earlier work
SKOV3 cells = test: In vitro PDT cell killing (Cytotox-96), antigen-positive cells; type: cell-based, human; conditions: 30 min incubation, laser light 2 min, 1.4 J/cm^2, cell kill assay after 48 hours
Procedure: as §1

Barrett's mucosal cancer = conditions: clinical PDT; cited from earlier work

NCC(=O)CCC(=O)O [ALA, 5-aminolaevulinic acid]
complete response [1]: 90% complete response | High-grade dysplasia [2]: erradicated in all patients

Oc1cccc(-c2c3nc(c(-c4cccc(O)c4)c4ccc([nH]4)c(-c4cccc(O)c4)c4nc(c(-c5cccc(O)c5)c5ccc2[nH]5)CC4)C=C3)c1 [Foscan™, meta-tetrahydroxyphenyl chlorin]
skin photosensitivity [3]: about 2 weeks

C6.5 scFv-Verteporfin (Visudyne™) conjugate
IC50 of in vitro PDT cell killing on antigen-positive SKOV3 cells (Her-2 receptor (human)): 2.2 µM

Dihematoporphyrin ether
complete response [4]: 20% complete response, | partial response [4]: 45% partial response | complete response (Oral cancer): 87% complete response

Hematoporphyrin derivative
alive after 5 years (Bladder cancer): 30% alive after 5 years | complete response (Bladder cancer): 74% complete response,

Pyropheophorbide a [PPa]
fluorescence / photophysical properties [5]: does not fluoresce significantly | uptake of PPa, KB cells vs SKOV3 cells (KB cells [6]): over 2 fold

benzoporphyrin derivative mono acid [Verteporfin (Visudyne™)]
IC50 (KB cells [7]): 10 µM | recovering vision loss associated with AMD [8]: more effective | IC50 (SKOV3 cells): 15.3 µM

porfimer sodium
conversion to normal epithelium (Barrett's mucosal cancer): 75% conversion to normal | tumours (Barrett's mucosal cancer): eliminated

From patent US8703427B2, “Biological materials and uses thereof” (PhotoBiotics Limited, priority 2005, dated 2014)
